Experimental data from PubChem BioAssay AID1850 (Southern Research Specialized Biocontainment Screening …, 2009).

System: Salmonella Typhi PhoP-promoter GFP reporter, fluorescence, 4 h
Test: Inhibition of PhoP regulon, Salmonella typhi GFP reporter cells, confirmation, 4 h (AID 1850)

O=C(Cc1cccs1)N/N=C\c1ccc([N+](=O)[O-])s1
IC50: 35 µM

O=c1cc(-c2ccc(O)cc2)oc2c(O)c(O)c(O)c(O)c12
IC50: 35.6 µM

CN(C)CCCN(C(=O)CCc1ccccc1)c1nc2ccc(Br)cc2s1
IC50: 69 µM

CCOc1cccc(CNCCc2c(C)[nH]c3ccc(OC(F)(F)F)cc23)c1O
IC50: 39.7 µM

CCCCCOc1ccc(CSC(=N)N)cc1[N+](=O)[O-]
IC50: 57.7 µM

COc1ccc(Nc2nc(NCC3CCCO3)c3ccccc3n2)c(OC)c1 (stereo not drawn)
IC50: 37 µM

CC[C@@H](C)[C@H](CNC)NC[C@@H](Cc1cccc2ccccc12)NCCc1cccc(C(F)(F)F)c1
IC50: 19.9 µM

CCn1cc(C(=O)O)c(=O)c2cc(F)c(N3CCN(C(=S)Nc4ccc(OC)cc4)CC3)cc21
IC50: 5.79 µM

CN1CCc2c(sc(NC(=O)c3ccc([N+](=O)[O-])o3)c2C(N)=O)C1
IC50: 18.7 µM

O=[N+]([O-])c1cc(/C=N/Nc2nc3ccccc3[nH]2)c(O)cc1O
IC50: 19.3 µM

CN(C)c1ccc(O)c2c1CC1CC3[C@@H](N(C)C)C(=O)C(C(N)=O)=C(O)[C@]3(O)C(=O)C1=C2O (stereo partly drawn)
IC50: 8.82 µM

CCCCC(=O)NNC(=S)NC(=O)CCC
IC50: 97.4 µM

CC(C(=O)NC1CCS(=O)(=O)C1)N1C(=O)/C(=C/c2ccc(Cl)cc2)SC1=S (stereo not drawn)
IC50: 22.2 µM

Oc1[nH]c2ccccc2c1N=NC(=S)N1CCOCC1
IC50: 35.7 µM

CC[C@H]1OC(=O)C[C@@H](O)[C@H](C)[C@@H](O[C@@H]2O[C@H](C)C[C@H](N(C)C)[C@H]2O)[C@@H](CC=O)C[C@@H](C)C(=O)C=C[C@]2(C)O[C@H]2[C@@H]1C
IC50: 7.16 µM

OCCN1CCN(CCCN2c3ccccc3Sc3ccc(C(F)(F)F)cc32)CC1
IC50: 105 µM

Oc1ccc(Cl)cc1Cc1cc(Cl)ccc1O
IC50: 33.8 µM

CN(C)CCCNc1cc(C(C)(C)C)nc2c(-c3ccc(Cl)cc3)cnn12
IC50: 18.9 µM

CCCCc1ccc(N/C(N)=N/c2nc(C)cc(C)n2)cc1
IC50: 77.8 µM

CCOc1ccc(Nc2nc(NCC3CCCO3)c3ccccc3n2)cc1 (stereo not drawn)
IC50: 3.28 µM

COc1cc(/C=N/NC(=O)c2cncc(Br)c2)cc([N+](=O)[O-])c1O
IC50: 63.5 µM

Cc1c(Cl)cccc1Nc1nc(NCCO)c2ccccc2n1
IC50: 10.8 µM

O=C(N/N=C/c1ccc([N+](=O)[O-])o1)c1ccc(O)cc1
IC50: 19.9 µM

O=C1c2ccccc2NC(c2ccc(-c3ccc(Br)cc3)o2)N1O (stereo not drawn)
IC50: 35.8 µM

CCn1cc(C(=O)O)c(=O)c2cc(F)c(N3CCN(S(=O)(=O)c4ccc(NC(C)=O)cc4)CC3)cc21
IC50: 103 µM

Clc1ccc(CNCc2cccs2)cc1Cl
IC50: 32 µM

O=C(Nc1cccc(Cl)c1)Nc1nccs1
IC50: 40 µM

COC(=O)C1C(O)C(C)C(O)C(C)/C=C\C=C(/C)C(=O)Nc2c(C)c(OC(C)=O)c3c(c2O)C(=O)C(C)=C2OCOC(=C23)/C(C)=C/C(C)(O)C(O)C(C)C1O (stereo not drawn)
IC50: 25.2 µM

Cc1ccc(-c2csc(NC(=O)C[n+]3cc(-c4ccc(C)cc4)n4c3CCC4)n2)cc1
IC50: 25 µM

COc1ccc(NC(=O)c2cc(Br)c(Br)s2)cn1
IC50: 10.3 µM

CCCCCCCCCCCCCCCC[N+](C)(C)CC
IC50: 18.6 µM

Cc1cc(C)n(-c2nc(SCCN(C)C)c3c4c(sc3n2)CCCC4)n1
IC50: 41.2 µM

CCOC(=O)c1c(-c2ccccc2)oc2ccc(OCC(O)CNCCN(C)C)cc12 (stereo not drawn)
IC50: 61 µM

S=C(Nc1cc(Cl)cc(Cl)c1)NC1CCN(Cc2ccccc2)CC1
IC50: 80.8 µM

COc1c(N2CCN(C(=S)Nc3ccccc3F)C(C)C2)c(F)cc2c(=O)c(C(=O)O)cn(C3CC3)c12 (stereo not drawn)
IC50: 1.63 µM

Nc1[nH]ncc1-c1ccccc1
IC50: 69.6 µM

O=C(Nc1ccncc1)Nc1ccc(Cl)cc1
IC50: 32.8 µM

CCCCCCCCCn1c2c(c(=N)c3c1CCC3)CCC2
IC50: 17.4 µM

CC1CCC(C(C)C)C(OC(=O)Cn2c(COc3ccccc3)[n+](C)c3ccccc32)C1 (stereo not drawn)
IC50: 35.1 µM

COC12C(COC(N)=O)C3=C(C(=O)C(C)=C(N)C3=O)N1CC1C2N1C (stereo not drawn)
IC50: 8.18 µM

O=C(Nc1nnc(-c2cccs2)o1)c1cccc(Oc2ccccc2)c1
IC50: 61.1 µM

Cc1cc(C)n(/N=C/c2cc(Cl)cc(Cl)c2O)c(=O)c1
IC50: 137 µM

Nc1c(Cl)ncnc1N/N=C/c1ccccn1
IC50: 33.7 µM
